Key:
hα7-wt nAChR = target: T1, hα7-wt nAChR (Homo sapiens, UniProt P36544); assay: Ca2+ flux imaging (FDSS) (Protocol B), PAM activity with choline as agonist; type: cell-based; conditions: for EC50: "<5" = no top plateau at maximal concentration; for Emax: read-out: % efficacy
T1 construct: expressed in transfected cells
Method in brief: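 Cells stably expressing human wild-type α7 nAChR, loaded with fluo-4AM (2 μM final) up to 120 min in HBSS/10 mM HEPES/5 mM CaCl2/0.1% BSA with 5 mM probenecid. Compounds (0.01–30 μM) added up to 10 min before 100 μM choline; peak fluorescence read on FDSS, potentiation expressed relative to choline-alone response (100%).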

T1 sequence (P36544 23-502): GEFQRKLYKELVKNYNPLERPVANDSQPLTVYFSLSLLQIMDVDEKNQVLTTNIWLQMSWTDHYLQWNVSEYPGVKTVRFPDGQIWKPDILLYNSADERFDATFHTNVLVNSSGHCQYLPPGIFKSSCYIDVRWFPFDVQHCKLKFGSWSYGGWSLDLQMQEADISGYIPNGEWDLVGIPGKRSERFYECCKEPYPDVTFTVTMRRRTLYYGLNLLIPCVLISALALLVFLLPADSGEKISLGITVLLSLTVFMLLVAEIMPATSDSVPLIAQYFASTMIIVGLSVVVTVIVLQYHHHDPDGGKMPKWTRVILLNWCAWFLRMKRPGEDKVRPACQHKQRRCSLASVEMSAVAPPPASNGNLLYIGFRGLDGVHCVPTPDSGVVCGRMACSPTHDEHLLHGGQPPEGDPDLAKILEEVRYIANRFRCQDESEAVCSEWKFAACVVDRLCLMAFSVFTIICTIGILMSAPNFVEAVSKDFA

EC50 (hα7-wt nAChR) [nM]	melting point [°C]	Emax (hα7-wt nAChR) [%]	Compound
501	178.4		CN(C)C(=O)CCn1nc(Nc2cccc(OC(F)(F)F)c2)nc1-c1ccncc1 [Compound 168]
794	192.8		CCNC(=O)Cn1nc(Nc2cc(F)c(F)c(NCC)c2)nc1-c1ccnc(NCC)c1 [Compound 181]
3160	192.2		CNC(=O)Cn1nc(Nc2cccc(OC(F)(F)F)c2)nc1-c1ccncc1F [Compound 154]
631	229.1		Cc1cc(-c2nc(Nc3ccc4c(c3)OC(F)(F)O4)nn2CC(=O)NC2CCCC2)ccn1 [Compound 206]
> 10000	219.7	811	Cc1cc(-c2nc(Nc3ccc4c(c3)OC(F)(F)O4)nn2CC(=O)NC2CCCC2O)ccn1 (stereo not drawn) [Compound 207]
316	204.6		COCc1cc(-c2nc(Nc3ccc(F)c(C(F)(F)F)c3)nn2CC(=O)NC2CC2)ccn1 [Compound 62]
2000	175.2 to 176.5		NC(=O)CCn1nc(Nc2cccc(C(F)(F)F)c2)nc1-c1ccc2c(c1)OCCO2 [Compound 10]
631	260.8		CNC(=O)Cn1nc(Nc2ccc(F)c(C(F)(F)F)c2)nc1-c1ccncc1NC [Compound 114]
5010	190.2		C/C(N)=N/OC(=O)CCn1nc(Nc2ccc(F)c(C(F)(F)F)c2)nc1-c1ccncc1 [Compound 53]
1260	117.4	717	Cc1nc(CCn2nc(Nc3ccc(F)c(C(F)(F)F)c3)nc2-c2ccnc(Cl)c2)no1 [Compound 56]
398	157.1		CN(C)C(=O)CCn1nc(Nc2cccc(OC(F)(F)F)c2)nc1-c1ccc(N)c(F)c1 [Compound 167]
50.1	177.2		CCc1ccc(-c2nc(Nc3ccc(F)c(C(F)(F)F)c3)nn2CCC(=O)N(C)C)cn1 [Compound 128]
1000	146.9		Cc1cc(-c2nc(Nc3ccc(F)c(C(F)(F)F)c3)nn2CCCC(=O)N(C)C)ccn1 [Compound 42]
2510	169.8		OCCn1nc(Nc2ccc(F)cc2)nc1-c1ccc(C2CC2)nc1 [Compound 171]
631	183		CCc1cc(-c2nc(Nc3ccc(F)c(C(F)(F)F)c3)nn2CCO)ccn1 [Compound 88]
631	219.3		Cc1cc(-c2nc(Nc3ccc4c(c3)OC(F)(F)O4)nn2CCC(=O)N(C)C)ccn1 [Compound 45]
794	200	812	Cc1cc(-c2nc(Nc3cc(F)c(F)c(F)c3)nn2C[C@H](C)O)cc(Cl)n1 [Compound 172]
1000	223.5		CCNC(=O)Cn1nc(Nc2ccc3c(c2)OC(F)(F)O3)nc1-c1ccnc(C)c1F [Compound 201]
794	246.8		CNC(=O)Cn1nc(Nc2ccc(F)c(C(F)(F)F)c2)nc1-c1cnc2c(c1)OCC2 [Compound 28]
794	238.6		CCNC(=O)Cn1nc(Nc2ccc(F)c(C(F)(F)F)c2)nc1-c1ccncc1C [Compound 118]
3160	222.4		CNC(=O)Cn1nc(Nc2cc(F)cc(F)c2)nc1-c1ccnc(C2CC2)c1 [Compound 179]
794	182.5 to 186.1	963	COc1ccc(-c2nc(Nc3cccc(OC(F)(F)F)c3)nn2CC(=O)NC(C)C)cc1OC [Compound 159]
3160	217.7		CC(C)NC(=O)CCn1nc(Nc2ccc(F)c(C(F)(F)F)c2)nc1-c1ccncc1 [Compound 136]
> 10000	271 to 272.1		NC(=O)Cn1nc(Nc2cccc(C(F)(F)F)c2)nc1-c1ccncc1 [Compound 19]
1000	181.3		Cc1cc(-c2nc(Nc3ccc(F)c(F)c3)nn2CCC(=O)N(C)C)ccn1 [Compound 185]
> 10000	207.1		CNC(=O)Cn1nc(Nc2ccc(F)c(C(F)(F)F)c2)nc1-c1ccc(NCCOC)nc1 [Compound 115]
200	219.3		CC1(NC(=O)Cn2nc(Nc3cccc(OC(F)(F)F)c3)nc2-c2ccc3c(c2)OCCO3)CC1 [Compound 166]
251	168		OCCn1nc(Nc2ccc(F)c(C(F)(F)F)c2)nc1-c1ccc(C2CC2)nc1 [Compound 94]

EC50 (hα7-wt nAChR) [nM]	melting point [°C]	Emax (hα7-wt nAChR) [%]	Compound
3980	137.3		COc1cc(Nc2nc(-c3ccnc(C)c3)n(CCC(=O)N(C)C)n2)ccc1F [Compound 187]
126	153.3		CC(C)NC(=O)Cn1nc(Nc2cccc(OC(F)(F)F)c2)nc1-c1ccc2c(c1)OCCN2C [Compound 160]
251	206.2 to 207.1		CNC(=O)Cn1nc(Nc2cccc(C(F)(F)F)c2)nc1-c1ccc2c(c1)OCCO2 [Compound 1]
398	203.9		Cc1cc(-c2nc(Nc3ccc(F)c(C#N)c3)nn2CCC(=O)N(C)C)ccn1 [Compound 186]
3160	145.8		C[C@H](O)Cn1nc(Nc2ccc(F)c(C(F)(F)F)c2)nc1-c1ccnc(NCC2CC2)c1 [Compound 104]
5010	253.8	909	Cc1cc(-c2nc(Nc3ccc4c(c3)OC(F)(F)O4)nn2CC(=O)NC2CCOC2)ccn1 (stereo not drawn) [Compound 208]
794	166.7		CNc1ccc(-c2nc(Nc3cc(F)c(F)cc3F)nn2CCC(=O)N(C)C)cn1 [Compound 189]
> 10000	164.5		CNc1cc(-c2nc(Nc3ccc(F)c(C(F)(F)F)c3)nn2C[C@H](C)O)ccn1 [Compound 98]
316	182.2		O=C(CCn1nc(Nc2cccc(C(F)(F)F)c2)nc1-c1ccncc1)N1CCCC1 [Compound 85]
398	167.7		COCCNc1ccc(-c2nc(Nc3ccc(F)c(C(F)(F)F)c3)nn2CCC(=O)N(C)C)cn1 [Compound 131]
631	192.7 to 195.3		COc1ccc(-c2nc(Nc3cccc(OC(F)(F)F)c3)nn2CC(=O)NC2CC2)cc1OC [Compound 163]
631	216.4		CN(C)C(=O)CCn1nc(Nc2ccc3c(c2)OC(F)(F)O3)nc1-c1ccncc1 [Compound 33]
3980	251		Cc1ccncc1-c1nc(Nc2ccc(F)c(C(F)(F)F)c2)nn1CC(=O)NC1CC1 [Compound 120]
2510	171.1		OCCn1nc(Nc2ccc(F)c(C(F)(F)F)c2)nc1-c1ccncc1 [Compound 87]
251	236.2		CCOc1ccc(-c2nc(Nc3ccc(F)c(C(F)(F)F)c3)nn2CC(=O)NC)cn1 [Compound 111]
794	199.8		COc1cc(Nc2nc(-c3ccnc(C)c3)n(CCC(=O)N(C)C)n2)cc(F)c1F [Compound 188]
398	185.8 to 191.3		CNC(=O)Cn1nc(Nc2cccc(OC(F)(F)F)c2)nc1-c1ccc2c(c1)OCCO2 [Compound 156]
501	157.9		CCOc1ccc(-c2nc(Nc3ccc(F)c(C(F)(F)F)c3)nn2CCO)cn1 [Compound 91]
794	215 to 219.2	974	COc1ccc(-c2nc(Nc3ccc(F)c(C(F)(F)F)c3)nn2CC(=O)NC(C)C)c(OC)c1 [Compound 119]
2000	256.6		CNC(=O)Cn1nc(Nc2ccc(F)c(C(F)(F)F)c2)nc1-c1ccc(NC)nc1 [Compound 113]
2510	247.1		CNC(=O)Cn1nc(Nc2ccc(F)c(C(F)(F)F)c2)nc1-c1ccc(C)nc1 [Compound 108]
3160	179		CNc1ccc(-c2nc(Nc3ccc(F)c(C(F)(F)F)c3)nn2CCO)cn1 [Compound 92]
6310	147.8	650	CC(=O)c1ccc(-c2nc(Nc3ccc(F)c(F)c3)nn2C[C@H](C)O)cn1 [Compound 50]
631	260.1		CCNC(=O)Cn1nc(Nc2ccc3c(c2)OC(F)(F)O3)nc1-c1ccnc2c1CCC2 [Compound 204]
20	219.8		CN(C)C(=O)CCn1nc(Nc2ccc(F)c(C(F)(F)F)c2)nc1-c1ccnc(NC2CC2)c1 [Compound 134]
316	201.5		CN(C)C(=O)CCn1nc(Nc2ccc3c(c2)OC(F)(F)O3)nc1-c1ccncc1F [Compound 210]
1000	165.1		CCNc1cc(-c2nc(Nc3cc(F)c(F)c(F)c3)nn2C[C@H](C)O)ccn1 [Compound 39]
